We go through 32 compounds from patent publication US7074816B2, “1 2 4-triazole compound” (Fuji Yakuhin Co., Ltd., priority 2002, dated 2006).

T1 sequence (P22985 whole entry): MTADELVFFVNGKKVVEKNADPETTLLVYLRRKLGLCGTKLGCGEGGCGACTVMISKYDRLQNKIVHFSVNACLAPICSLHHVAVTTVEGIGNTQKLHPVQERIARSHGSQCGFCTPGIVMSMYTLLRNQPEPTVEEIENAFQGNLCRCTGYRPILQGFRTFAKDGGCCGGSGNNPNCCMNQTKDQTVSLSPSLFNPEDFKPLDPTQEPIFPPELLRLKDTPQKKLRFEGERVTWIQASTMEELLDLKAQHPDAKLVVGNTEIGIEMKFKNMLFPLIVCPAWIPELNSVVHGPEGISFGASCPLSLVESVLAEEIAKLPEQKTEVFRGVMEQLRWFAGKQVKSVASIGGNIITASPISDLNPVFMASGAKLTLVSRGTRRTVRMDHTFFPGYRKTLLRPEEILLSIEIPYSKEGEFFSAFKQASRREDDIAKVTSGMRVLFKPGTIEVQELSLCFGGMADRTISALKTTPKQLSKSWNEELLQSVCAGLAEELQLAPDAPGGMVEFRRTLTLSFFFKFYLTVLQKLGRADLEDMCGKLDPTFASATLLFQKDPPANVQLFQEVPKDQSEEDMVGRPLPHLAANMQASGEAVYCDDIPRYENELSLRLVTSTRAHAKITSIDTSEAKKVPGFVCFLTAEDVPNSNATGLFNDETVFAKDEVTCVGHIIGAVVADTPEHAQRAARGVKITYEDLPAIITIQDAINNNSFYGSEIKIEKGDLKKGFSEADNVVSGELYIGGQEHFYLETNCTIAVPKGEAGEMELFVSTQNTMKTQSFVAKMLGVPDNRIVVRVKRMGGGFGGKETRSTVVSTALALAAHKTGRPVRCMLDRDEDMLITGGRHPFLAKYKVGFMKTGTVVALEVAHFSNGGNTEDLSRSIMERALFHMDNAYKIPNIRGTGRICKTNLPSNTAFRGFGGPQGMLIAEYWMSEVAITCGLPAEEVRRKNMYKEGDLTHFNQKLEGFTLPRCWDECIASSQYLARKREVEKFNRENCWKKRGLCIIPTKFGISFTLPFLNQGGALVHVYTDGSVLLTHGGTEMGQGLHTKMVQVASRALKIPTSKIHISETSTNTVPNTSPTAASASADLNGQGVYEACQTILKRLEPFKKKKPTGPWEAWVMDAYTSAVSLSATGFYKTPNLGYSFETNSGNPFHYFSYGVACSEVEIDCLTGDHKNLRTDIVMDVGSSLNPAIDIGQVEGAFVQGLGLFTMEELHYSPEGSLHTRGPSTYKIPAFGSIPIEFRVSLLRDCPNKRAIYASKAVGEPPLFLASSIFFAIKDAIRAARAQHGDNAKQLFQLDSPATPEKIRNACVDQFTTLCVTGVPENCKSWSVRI

The first experiment addresses T1, xanthine oxidase (Rattus norvegicus, UniProt P22985).
T1 construct: administered orally to seven-week-old male Wistar rats (4 rats per group); from tissue; host or cells: whole animal (male Wistar rats); the enzyme is endogenous and was not isolated
Kind of experiment: Effect of lowering serum uric acid level in vivo (oral, Wistar rats). Particulars: male Wistar rats, 0.3 mg/5 ml/kg in 0.5% methylcellulose, blood collected 6 hours after administration. How it is done:
Method for Evaluating the Effect of Lowering Serum Uric Acid Level In Vivo
Each of the test compounds was suspended in a 0.5% methylcellulose (MC) aqueous solution and administered orally to seven-week-old male Wistar rats (4 rats per group) compulsorily through a feeding tube at a dose of 0.3 mg/5 ml/kg (1 mg/5 ml/kg for Example 17 and Compound 44 of J. Medicinal Chemistry, (1975) as a control). The blood was collected from the orbital sinus at 6 hours after administration of the test compound. Each blood sample was allowed to clot for one hour and then centrifuged at 2000×g for 10 minutes to obtain serum. The uric acid level in the serum was determined using a kit (Wako Pure Chemicals Industries, Ltd.; phosphotungstic acid method) and a reduction rate of serum uric acid level was calculated by the following formula:
Reduction rate of serum uric acid level=(1-Average serum uric acid level in the group receiving a test compound/Average serum uric acid level in the group receiving MC)×100
Consider `Cc1cc(-c2nc(-c3ccc(OCC(C)C)c([N+](=O)[O-])c3)n[nH]2)ccn1` [Example 1, 3-(4-isobutoxy-3-nitrophenyl)-5-(2-methyl-4-pyridyl)-1,2,4-triazole], for which the “Reduction rate of serum uric acid level” value is listed as 66.5%.
Turning to `CC(C)COc1ccc(-c2n[nH]c(-c3ccncc3)n2)cc1C#N` [Example 2, 3-(3-cyano-4-isobutoxyphenyl)-5-(4-pyridyl)-1,2,4-triazole], the “Reduction rate of serum uric acid level” value is reported as 62.3%.
On the same count and under the same terms, next, `COCCOCOc1ccc(-c2n[nH]c(-c3ccnc(C)c3)n2)cc1C#N` [Example 3, 3-[3-cyano-4-{(2-methoxy)ethoxymethyl}oxyphenyl]-5-(2-methyl-4-pyridyl)-1,2,4-triazole]: 40.0%; `Cc1cc(-c2nc(-c3ccc(N4CCN(C)CC4)c([N+](=O)[O-])c3)n[nH]2)ccn1` [Example 4, 3-[4-(4-methyl-1-piperazino)-3-nitrophenyl]-5-(2-methyl-4-pyridyl)-1,2,4-triazole]: 43.9%; `Cc1cc(-c2nc(-c3ccc(NCC(C)C)c([N+](=O)[O-])c3)n[nH]2)ccn1` [Example 5, 3-(4-isobutylamino-3-nitrophenyl)-5-(2-methyl-4-pyridyl)-1,2,4-triazole]: 39.9%.
On the same count and under the same terms, the result for `Cc1cc(-c2nc(-c3ccc(Sc4ccccc4)c([N+](=O)[O-])c3)n[nH]2)ccn1` [Example 6, 5-(2-methyl-4-pyridyl)-3-(3-nitro-4-phenylthiophenyl)-1,2,4-triazole] reads 40.6%.
Still for that read-out and setting: next, `Cc1cc(-c2nc(-c3ccc(SCC(C)C)c([N+](=O)[O-])c3)n[nH]2)ccn1` [Example 7, 3-(4-isobutylthio-3-nitrophenyl)-5-(2-methyl-4-pyridyl)-1,2,4-triazole]: 42.7%.
For the compound `Cc1cc(-c2nc(-c3ccc(OCSc4ccccc4)c([N+](=O)[O-])c3)n[nH]2)ccn1` [Example 8, 5-(2-methyl-4-pyridyl)-3-(3-nitro-4-phenylthiomethyloxyphenyl)-1,2,4-triazole], the “Reduction rate of serum uric acid level” value worked out at 32.5%.
On the same count and under the same terms, the result for `CSCOc1ccc(-c2n[nH]c(-c3ccnc(C)c3)n2)cc1[N+](=O)[O-]` [Example 9, 5-(2-methyl-4-pyridyl)-3-(4-methylthiomethyloxy-3-nitrophenyl)-1,2,4-triazole] reads 35.7%; that for `Cc1cc(-c2nc(-c3ccc(OCOCc4ccccc4)c([N+](=O)[O-])c3)n[nH]2)ccn1` [Example 10, 3-(4-benzyloxymethyloxy-3-nitrophenyl)-5-(2-methyl-4-pyridyl)-1,2,4-triazole], 41.6%; that for `Cc1cc(-c2nc(-c3ccc(OCC4CCCCO4)c([N+](=O)[O-])c3)n[nH]2)ccn1` (centres unmarked) [Example 11, 5-(2-methyl-4-pyridyl)-3-[3-nitro-4-(2-tetrahydropyranylmethyl)oxyphenyl]-1,2,4-triazole], 41.6%.
Same read-out and setting: the result for `N#Cc1cc(-c2nc(-c3ccncc3)n[nH]2)ccn1` [Example 12, 5-(2-cyano-4-pyridyl)-3-(4-pyridyl)-1,2,4-triazole] reads 51.1%; that for `CC(C)COc1ccc(-c2n[nH]c(-c3ccncc3)n2)cc1[N+](=O)[O-]` [Example 13, 3-(4-isobutoxy-3-nitrophenyl)-5-(4-pyridyl)-1,2,4-triazole], 46.8%.
Still for that read-out and setting: next, `Cc1cc(-c2nc(-c3ccc(OCC(C)C)c([N+](=O)[O-])c3)nn2COC(=O)C(C)(C)C)ccn1` [Example 14, 3-(4-isobutoxy-3-nitrophenyl)-5-(2-methyl-4-pyridyl)-N-pivaloyloxymethyl-1,2,4-triazole]: 43.0%; `CCCCOc1ccc(-c2n[nH]c(-c3ccncc3)n2)cc1[N+](=O)[O-]` [Example 15, 3-(4-butoxy-3-nitrophenyl)-5-(4-pyridyl)-1,2,4-triazole]: 41.2%.
For the compound `CC(C)Oc1ccc(-c2nc(-c3ccncc3)n[nH]2)cc1[N+](=O)[O-]` [Example 16, 5-(4-isopropoxy-3-nitrophenyl)-3-(4-pyridyl)-1,2,4-triazole], the “Reduction rate of serum uric acid level” value came out at 36.1%.
Same read-out and setting: the result for `Cc1cc(-c2n[nH]c(-c3ccc(OCC(C)C)c(C#N)c3)n2)ccn1` [Example 20, 3-(2-methyl-4-pyridyl)-5-(3-cyano-4-isobutoxyphenyl)-1,2,4-triazole] reads 67.5%.
Take `COc1ccc(-c2nc(-c3ccnc(C)c3)n[nH]2)cc1[N+](=O)[O-]` [Example 21, 3-(2-methyl-4-pyridyl)-5-(3-nitro-4-methoxyphenyl)-1,2,4-triazole]: the “Reduction rate of serum uric acid level” value was 52.9%.
The same measure, in the same setting: the result for `Cc1cc(-c2n[nH]c(-c3ccc(OCC4CC4)c(C#N)c3)n2)ccn1` [Example 22, 3-(2-methyl-4-pyridyl)-5-(3-cyano-4-cyclopropylmethoxyphenyl)-1,2,4-triazole] reads 32.6%; that for `Cc1cc(-c2nc(-c3ccnc(C#N)c3)n[nH]2)ccn1` [Example 23, 3-(2-cyano-4-pyridyl)-5-(2-methyl-4-pyridyl)-1,2,4-triazole], 41.1%.
Still for that read-out and setting: the result for `COc1ccc(COc2ccc(-c3nc(-c4ccnc(C)c4)n[nH]3)cc2C#N)cc1` [Example 24, 3-(2-methyl-4-pyridyl)-5-[3-cyano-4-(4-methoxybenzyloxy)phenyl]-1,2,4-triazole] reads 38.3%.
On to `Cc1cc(-c2n[nH]c(-c3ccc(OCCC(C)C)c(C#N)c3)n2)ccn1` [Example 25, 3-(2-methyl-4-pyridyl)-5-(3-cyano-4-isopentyloxyphenyl)-1,2,4-triazole], for which the “Reduction rate of serum uric acid level” value amounted to 47.2%.
The same measure, in the same setting: next, `COc1ccc(-c2nc(-c3ccnc(C)c3)n[nH]2)cc1C#N` [Example 26, 3-(2-methyl-4-pyridyl)-5-(3-cyano-4-methoxyphenyl)-1,2,4-triazole]: 37.9%; `Cc1cc(-c2nc(-c3ccnc(Cl)c3)n[nH]2)ccn1` [Example 27, 3-(2-chloro-4-pyridyl)-5-(2-methyl-4-pyridyl)-1,2,4-triazole]: 32.9%.
In the case of `C#CCOc1ccc(-c2nc(-c3ccnc(C)c3)n[nH]2)cc1C#N` [Example 28, 3-(2-methyl-4-pyridyl)-5-(3-cyano-4-propargyloxyphenyl)-1,2,4-triazole], the “Reduction rate of serum uric acid level” value is 35.3%.
Consider `Cc1cc(-c2n[nH]c(-c3ccc(OCCOCCOCCCl)c(C#N)c3)n2)ccn1` [Example 29, 3-(2-methyl-4-pyridyl)-5-[3-cyano-4-{(<2-chloroethoxy>ethoxy)ethoxy}phenyl]-1,2,4-triazole], for which the “Reduction rate of serum uric acid level” value was 40.7%.
Same read-out and setting: next, `COCCOc1ccc(-c2nc(-c3ccnc(C)c3)n[nH]2)cc1C#N` [Example 31, 3-(2-methyl-4-pyridyl)-5-(3-cyano-4-methoxyethoxyphenyl)-1,2,4-triazole]: 36.5%; `COCCOCCOc1ccc(-c2nc(-c3ccnc(C)c3)n[nH]2)cc1C#N` [Example 32, 3-(2-methyl-4-pyridyl)-5-[3-cyano-4-{(2-methoxyethoxy)ethoxy}phenyl]-1,2,4-triazole]: 52.0%; `COCCOCCOCCOc1ccc(-c2nc(-c3ccnc(C)c3)n[nH]2)cc1C#N` [Example 33, 3-(2-methyl-4-pyridyl)-5-[3-cyano-4-{(<2-methoxyethoxy>ethoxy)ethoxy}phenyl]-1,2,4-triazole]: 44.7%.
On the same count and under the same terms, next, `N#Cc1cc(-c2n[nH]c(-c3cc[n+]([O-])cc3)n2)ccn1` [Example 35, 3-(2-cyano-4-pyridyl)-5-(1-oxy-4-pyridyl)-1,2,4-triazole]: 46.8%; `N#Cc1cc(-c2n[nH]c(-c3ccnc(Cl)c3)n2)ccn1` [Example 37, 3-(2-cyano-4-pyridyl)-5-(2-chloro-4-pyridyl)-1,2,4-triazole]: 33.6%.

Still in this experiment, the particulars now being: male Wistar rats, 1 mg/5 ml/kg in 0.5% methylcellulose, blood collected 6 hours after administration.
Regarding `CC(C)COc1ccc(-c2n[nH]c(-c3ccnc(Cl)c3)n2)cc1[N+](=O)[O-]` [Example 17, 5-(2-chloro-4-pyridyl)-3-(4-isobutoxy-3-nitrophenyl)-1,2,4-triazole], the “Reduction rate of serum uric acid level” value is on record as 40.6%.
